Measurements reported in patent US12447119B2, “Oral care composition” (SUNSTAR AMERICAS, INC., priority 2019, dated 2025).

Experiment: Solubility of surfactant in an oral care composition (statement in Experiment 4)
Assay type: physicochemical
Settings: compared with a monoglyceride and diglyceride mixture
Source text: The results of Experiment 4 are shown in FIG. 5 (represented by Table 6 below), which measures the toothpaste concentration that causes 50% cell hemolysis. […] Glyceryl monostearate is harder to dissolve in an oral care composition than monoglyceride and digylceride mixtures.

CCCCCCCCCCCCCCCCCC(=O)OCC(O)CO (stereo not shown) [Glyceryl monostearate, glyceryl monostearate]
solubility of the surfactant in an oral care composition: less soluble than a monoglyceride and diglyceride mixture
